The text below walks through data of patent US20130131057A1, “NEW BICYCLIC COMPOUNDS AS PI3-K AND MTOR INHIBITORS” (CENTRO NACIONAL DE INVESTIGACIONES ONCOLOGICAS (CNIO, priority 2010, published 2013).

For the assay, the target named is T1, PI3K (p110α/p85α) (Homo sapiens, UniProt P42336).
T1 construct: purchased Carna Biosciences 07CBS-0402A
In words: PI3K activity assay (ADP Hunter Plus). It is filed as biochemical. Particulars: read-out: PI3Kα IC50. Here is the method:
The kinase activity was measured by using the commercial ADP Hunter™ Plus assay available from DiscoveRx, (#33-016), which is a homogeneous assay to measure the accumulation of ADP, a universal product of kinase activity. The enzyme, PI3K (p110α/p85α, was purchased from Carna Biosciences (#07CBS-0402A). The assay was done following the manufacturer recommendations with slight modifications: Mainly the kinase buffer was replace by 50 mM HEPES, pH 7.5, 3 mM MgCl2, 100 mM NaCl, 1 mM EGTA, 0.04% CHAPS, 2 mM TCEP and 0.01 mg/ml BGG. The PI3K was assayed in a titration experiment to determine the optimal protein concentration for the inhibition assay. To calculate the IC50 of the ETP-compounds, serial 1:5 dilutions of the compounds were added to the enzyme at a fixed concentration (2.5 μg/ml. The enzyme was preincubated with the inhibitor and 30 μM PIP2 substrate (P9763, Sigma) for 5 min and then ATP was added to a final 50 μM concentration. Reaction was carried out for 1 hour at 25° C. Reagent A and B were sequentially added to the wells and plates were incubated for 30 min at 37° C. Fluorescence counts were read in a Victor instrument (Perkin Elmer) with the recommended settings (544 and 580 nm as excitation and emission wavelengths, respectively). Values were normalized against the control activity included for each enzyme (i.e., 100% PI3 kinase activity, without compound). These values were plot against the inhibitor concentration and were fit to a sigmoid dose-response curve by using the Graphad software.

SMILES strings stand for the structures. “And” between values parts separate entries of the source, which are not always exact repeats. Equal entries are not always repeated.

T1 sequence (P42336 whole entry): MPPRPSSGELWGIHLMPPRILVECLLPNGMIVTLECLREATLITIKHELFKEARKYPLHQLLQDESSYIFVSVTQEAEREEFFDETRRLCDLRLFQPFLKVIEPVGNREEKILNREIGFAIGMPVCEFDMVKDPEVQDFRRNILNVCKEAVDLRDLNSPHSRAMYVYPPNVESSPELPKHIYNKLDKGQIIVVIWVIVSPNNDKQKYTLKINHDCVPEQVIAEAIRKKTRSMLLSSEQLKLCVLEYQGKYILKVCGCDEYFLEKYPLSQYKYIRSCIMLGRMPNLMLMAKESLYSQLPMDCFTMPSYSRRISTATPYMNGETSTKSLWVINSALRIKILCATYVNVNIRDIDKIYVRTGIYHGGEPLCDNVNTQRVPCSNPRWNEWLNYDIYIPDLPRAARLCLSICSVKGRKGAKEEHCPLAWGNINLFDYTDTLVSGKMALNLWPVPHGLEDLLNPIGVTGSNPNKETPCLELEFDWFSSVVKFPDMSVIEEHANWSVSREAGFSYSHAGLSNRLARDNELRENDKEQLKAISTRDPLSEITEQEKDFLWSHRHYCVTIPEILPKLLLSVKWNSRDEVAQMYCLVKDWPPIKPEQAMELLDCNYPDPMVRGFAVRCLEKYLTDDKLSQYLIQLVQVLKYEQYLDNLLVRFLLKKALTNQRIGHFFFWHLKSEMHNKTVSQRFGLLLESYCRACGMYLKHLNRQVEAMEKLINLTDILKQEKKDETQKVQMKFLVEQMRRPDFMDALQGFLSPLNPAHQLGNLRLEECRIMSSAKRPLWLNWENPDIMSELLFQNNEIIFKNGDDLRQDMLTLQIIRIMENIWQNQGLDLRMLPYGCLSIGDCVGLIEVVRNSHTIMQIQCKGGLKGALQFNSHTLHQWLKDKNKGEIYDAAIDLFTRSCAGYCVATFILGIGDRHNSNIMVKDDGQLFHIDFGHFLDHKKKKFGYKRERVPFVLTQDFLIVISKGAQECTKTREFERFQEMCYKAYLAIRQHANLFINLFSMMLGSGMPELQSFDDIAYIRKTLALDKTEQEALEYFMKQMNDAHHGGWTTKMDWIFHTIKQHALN
T1 sequence (P27986 whole entry partner): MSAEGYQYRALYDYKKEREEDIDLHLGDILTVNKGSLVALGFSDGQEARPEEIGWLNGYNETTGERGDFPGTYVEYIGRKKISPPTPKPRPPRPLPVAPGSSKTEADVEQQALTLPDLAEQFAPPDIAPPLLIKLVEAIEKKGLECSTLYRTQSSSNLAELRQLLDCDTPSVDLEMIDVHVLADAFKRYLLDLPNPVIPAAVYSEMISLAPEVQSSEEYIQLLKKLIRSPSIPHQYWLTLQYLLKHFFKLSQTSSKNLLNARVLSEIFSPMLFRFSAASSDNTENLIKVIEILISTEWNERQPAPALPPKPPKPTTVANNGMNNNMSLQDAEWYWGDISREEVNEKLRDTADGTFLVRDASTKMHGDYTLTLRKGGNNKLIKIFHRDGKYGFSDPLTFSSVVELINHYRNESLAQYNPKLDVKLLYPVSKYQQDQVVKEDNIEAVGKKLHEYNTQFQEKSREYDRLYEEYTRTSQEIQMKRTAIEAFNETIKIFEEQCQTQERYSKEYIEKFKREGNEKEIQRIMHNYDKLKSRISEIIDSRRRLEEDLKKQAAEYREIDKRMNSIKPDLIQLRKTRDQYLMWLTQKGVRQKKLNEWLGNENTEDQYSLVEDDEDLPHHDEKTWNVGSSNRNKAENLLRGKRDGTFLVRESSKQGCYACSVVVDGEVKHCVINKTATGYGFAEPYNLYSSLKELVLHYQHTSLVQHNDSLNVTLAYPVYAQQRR

For `CN(C)CCCNC(=O)c1cc2c(N3CCOCC3)nc(-c3cnc(N)nc3)cn2n1` [1-09, 6-(2-amino-pyrimidin-5-yl)-4-morpholin-4-yl-pyrazolo[1,5-a]pyrazine-2-carboxylic acid (3-dimethylamino-propyl)-amide], the IC50 was found to be 443 nM.

Regarding `Nc1ncc(-c2cn3nc(C(=O)N[C@H]4CC[C@H](O)CC4)cc3c(N3CCOCC3)n2)cn1` [1-10, 6-(2-amino-pyrimidin-5-yl)-4-morpholin-4-yl-pyrazolo[1,5-a]pyrazine-2-carboxylic acid (4-hydroxy-cyclohexyl)-amide], the IC50 was determined as 16 nM.

In the case of `NC(=O)c1cc2c(N3CCOCC3)nc(-c3cnc(N)nc3)cn2n1` [1-05, 6-(2-amino-pyrimidin-5-yl)-4-morpholin-4-yl-pyrazolo[1,5-a]pyrazine-2-carboxylic acid amide], the IC50 was determined as 14 nM.

Take `Nc1ncc(-c2cn3nc(C(=O)N4CCCC4)cc3c(N3CCOCC3)n2)cn1` [1-07, [6-(2-amino-pyrimidin-5-yl)-4-morpholin-4-yl-pyrazolo[1,5-a]pyrazin-2-yl]-pyrrolidin-1-yl-methanone]: the IC50 was 9 nM.

Take `Nc1ncc(-c2cn3nc(C(=O)NC4CCOCC4)cc3c(N3CCOCC3)n2)cn1` [1-04]: the IC50 was found to be 26 nM.

Turning to `COCCNC(=O)c1cn2nc(-c3cnc(N)nc3)nc(N3CCOCC3)c2n1` [1-02], the IC50 was 3 nM.

As for `COCCNC(=O)c1cc2c(N3CCOCC3)nc(-c3cnc(N)nc3)cn2n1` [1-03], the IC50 was 29 nM and < 100 nM.

On to `NC(=O)c1cn2nc(-c3cnc(N)nc3)nc(N3CCOCC3)c2n1` [1-01], for which the IC50 came out at 19 nM.
